Positions of bridges follow the written chain, without caps; N, C: chain ends. Non-standard residues stand in square brackets, D forms with d. Residues, ends and D or L forms follow the SMILES beside them. *: point of attachment. Trp(7-(3-AcNH-Ph)) = CC(=O)Nc1cccc(-c2cccc3c(C[C@H](N)C(=O)O)c[nH]c23)c1; Me3N+(CH2)2O(CH2)2O(CH2)2CO = C[N+](C)(C)CCOCCOCCC(=O)*; CH2CH2OCH2CH2OCH2CH2NMe3+ = C[N+](C)(C)CCOCCOCC*; Trp(7-Me) = Cc1cccc2c(C[C@H](N)C(=O)O)c[nH]c12; dLys(Me3) = C[N+](C)(C)CCCC[C@@H](N)C(=O)O; 3Pal(5-Me) = Cc1cncc(C[C@H](N)C(=O)O)c1; 2Nal = N[C@@H](Cc1ccc2ccccc2c1)C(=O)O; AEF = NCCOc1ccc(C[C@H](N)C(=O)O)cc1; 3Pal = N[C@@H](Cc1cccnc1)C(=O)O; Ethyl(2-guanidino) = N=C(N)NCC*; Lys(Me) = CNCCCC[C@H](N)C(=O)O; Pen = CC(C)(S)[C@H](N)C(=O)O; Thp = NC1(C(=O)O)CCOCC1; X3 = C[N+](C)(C)CCCCC*; Sar = CNCC(=O)O
Test: Exposed Polar Surface Area (EPSA)
Assay type: physicochemical
Conditions: SFC on Chirex 3014 column; sample 1 mM DMSO stock; read-out: EPSA
Summary of the method: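 Compounds, as 1 mM DMSO stock, were injected in duplicate onto an SFC Chirex 3014 column at 35 °C and eluted with a CO2/methanol (20 mM ammonium formate) gradient. EPSA values in Å^2 were derived from retention times using a linear fit to eight calibration standards, reinjected every 20 compounds.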

In order of rising EPSA:
1. CC(=O)N(C)CCCC[C@@H]1NC(=O)[C@H](Cc2c[nH]c3c(C)cccc23)NC(=O)[C@H](CC(C)C)NC(=O)[C@H](CC(=O)N(C)C)NC(=O)[C@@H](NC(=O)CCOCCOCC[N+](C)(C)C)C(C)(C)SSC(C)(C)[C@@H](C(=O)N[C@@H](Cc2ccc(OCCCCC[N+](C)(C)C)cc2)C(=O)N[C@@H](Cc2ccc3ccccc3c2)C(=O)NC2(C(=O)N[C@@H](CCCCN(C)C(C)=O)C(=O)N[C@@H](CC(N)=O)C(=O)N[C@@H](Cc3cccnc3)C(=O)N(C)CC(=O)N(C)C)CCOCC2)NC1=O [compound 493, cPEG3aCO-Pen(3)-N(N(Me)2)-L-7MeW-K(NMeAc)-Pen(3)-TMAPF-2Nal-THP-K(NMeAc)-N-3Pya-Sar-CON(Me)2] ({Me3N+(CH2)2O(CH2)2O(CH2)2CO}-[Pen]D(NMe2)L[Trp(7-Me)][Lys(Me)](Ac)[Pen]Y(X3)[2Nal][Thp][Lys(Me)](Ac)N[3Pal][Sar]-NMe2; disulfide 1-6)  132 A^2
2. CC(=O)N(C)CCCC[C@@H]1NC(=O)[C@H](Cc2c[nH]c3c(C)cccc23)NC(=O)[C@H]([C@@H](C)O)NC(=O)[C@H](CC(C)C)NC(=O)[C@@H](NC(=O)CCOCCOCC[N+](C)(C)C)C(C)(C)SSC(C)(C)[C@@H](C(=O)N[C@@H](Cc2ccc(OCCCCC[N+](C)(C)C)cc2)C(=O)N[C@@H](Cc2ccc3ccccc3c2)C(=O)NC2(C(=O)N[C@@H](CCCCN(C)C(C)=O)C(=O)N[C@@H](CC(N)=O)C(=O)N[C@@H](Cc3cccnc3)C(=O)N(C)CC(=O)N(C)C)CCOCC2)NC1=O [compound 495, cPEG3aCO-Pen(3)-1-T-7MeW-K(NMeAc)-Pen(3)-TMAPF-2Nal-THP-K(NMeAc)-N-3Pya-Sar-CON(Me)2] ({Me3N+(CH2)2O(CH2)2O(CH2)2CO}-[Pen]LT[Trp(7-Me)][Lys(Me)](Ac)[Pen]Y(X3)[2Nal][Thp][Lys(Me)](Ac)N[3Pal][Sar]-NMe2; disulfide 1-6)  160 A^2
3. CC(=O)N(C)CCCC[C@@H]1NC(=O)[C@H](Cc2c[nH]c3c(C)cccc23)NC(=O)[C@H]([C@@H](C)O)NC(=O)[C@H](CC(=O)N(C)C)NC(=O)[C@@H](NC(=O)CCOCCOCC[N+](C)(C)C)C(C)(C)SSC[C@@H](C(=O)N[C@@H](Cc2ccc(OCCCCC[N+](C)(C)C)cc2)C(=O)N[C@@H](Cc2ccc3ccccc3c2)C(=O)NC2(C(=O)N[C@@H](CCCCN(C)C(C)=O)C(=O)N[C@@H](CC(N)=O)C(=O)N[C@@H](Cc3cccnc3)C(=O)N(C)CC(=O)N(C)C)CCOCC2)NC1=O [compound 485, cPEG3aCO-Pen(3)-N(N(Me)2)-T-7MeW-K(NMeAc)-C(3)-TMAPF-2Nal-THP-K(NMeAc)-N-3Pya-Sar-CON(Me)2] ({Me3N+(CH2)2O(CH2)2O(CH2)2CO}-[Pen]D(NMe2)T[Trp(7-Me)][Lys(Me)](Ac)CY(X3)[2Nal][Thp][Lys(Me)](Ac)N[3Pal][Sar]-NMe2; disulfide 1-6)  163 A^2
4. CC(=O)NCCCC[C@@H]1NC(=O)[C@H](Cc2c[nH]c3c(C)cccc23)NC(=O)[C@H]([C@@H](C)O)NC(=O)[C@H](CC(N)=O)NC(=O)[C@H](NC(C)=O)CSSC[C@@](C)(C(=O)N[C@@H](Cc2ccc(OCCCCC[N+](C)(C)C)cc2)C(=O)N[C@@H](Cc2ccc3ccccc3c2)C(=O)NC2(C(=O)N[C@@H](CCCCNC(C)=O)C(=O)N[C@@H](CC(N)=O)C(=O)N[C@@H](Cc3cccnc3)C(=O)N(C)CC(N)=O)CCOCC2)NC1=O [compound 478, MeCO-C(3)-N-T-7MeW-K(Ac)-aMeC(3)-TMAPF-2Nal-THP-K(Ac)-N-3Pya-Sar-CONH2]  164 A^2
5. CC(=O)N(C)CCCC[C@H](NC(=O)[C@H](Cc1c[nH]c2ccccc12)NC(=O)[C@H](Cc1ccc2ccccc2c1)NC(=O)[C@H](Cc1ccc(OCCOCCOCC[N+](C)(C)C)cc1)NC(=O)[C@H]1NC(=O)[C@H](Cc2c[nH]c3ccccc23)NC(=O)[C@H](Cc2c[nH]c3c(C)cccc23)NC(=O)[C@H]([C@@H](C)O)NC(=O)[C@H](Cc2c[nH]c3ccccc23)NC(=O)[C@@H](NC(=O)CCOCCOCC[N+](C)(C)C)C(C)(C)SSC1(C)C)C(=O)N[C@@H](CC(N)=O)C(=O)N[C@@H](Cc1cccnc1)C(=O)N(C)CC(=O)N(C)C [compound 465, cPEG3aCO-Pen(3)-W-T-7MeW-W-Pen(3)-APEG3f-2Nal-W-K(NMeAc)-N-3Pya-Sar-CON(Me)2] ({Me3N+(CH2)2O(CH2)2O(CH2)2CO}-[Pen]WT[Trp(7-Me)]W[Pen]Y(CH2CH2OCH2CH2OCH2CH2NMe3+)[2Nal]W[Lys(Me)](Ac)N[3Pal][Sar]-NMe2; disulfide 1-6)  176 A^2
6. CC(=O)NCCCC[C@@H]1NC(=O)[C@H](Cc2c[nH]c3c(-c4cccc(NC(C)=O)c4)cccc23)NC(=O)[C@H]([C@@H](C)O)NC(=O)[C@H](CC(N)=O)NC(=O)[C@@H](NC(C)=O)C(C)(C)SSC(C)(C)[C@@H](C(=O)N[C@@H](Cc2ccc(OCCNC(=N)N)cc2)C(=O)N[C@@H](Cc2ccc3ccccc3c2)C(=O)NC2(C(=O)N[C@@H](CCCCN(C)C(C)=O)C(=O)N[C@@H](CC(N)=O)C(=O)N[C@@H](Cc3cncc(C)c3)C(=O)N(C)CC(N)=O)CCOCC2)NC1=O [compound 482, MeCO-Pen(3)-N-T-7(3NAcPh)W-K(Ac)-Pen(3)-AEF(G)-2Nal-THP-K(NMeAc)-N-5MePyridinAla-Sar-CONH2]  180 A^2
7. CC(=O)NCCCC[C@@H]1NC(=O)[C@H](Cc2c[nH]c3c(C)cccc23)NC(=O)[C@H]([C@@H](C)O)NC(=O)[C@H](CC(N)=O)NC(=O)[C@@H](NC(=O)COCCOCCNC(=O)COCCOCCNC(=O)COc2ccc(-c3ccc(F)cc3F)cc2C(=O)O)C(C)(C)SSC(C)(C)[C@@H](C(=O)N[C@@H](Cc2ccc(OCCCCC[N+](C)(C)C)cc2)C(=O)N[C@@H](Cc2ccc3ccccc3c2)C(=O)NC2(C(=O)N[C@@H](CCCCN(C)C(C)=O)C(=O)N[C@@H](CC(N)=O)C(=O)N[C@@H](Cc3cccnc3)C(=O)N(C)CC(N)=O)CCOCC2)NC1=O [compound 490, DFNPEG2PEG2CO-Pen(3)-N-T-7MeW-K(Ac)-Pen(3)-TMAPF-2Nal-THP-K(Ac)-N-3Pya-Sar-CONH2]  182 A^2
8. CC(=O)NCCCC[C@@H]1NC(=O)[C@H](Cc2c[nH]c3c(C)cccc23)NC(=O)[C@H]([C@@H](C)O)NC(=O)[C@H](CC(N)=O)NC(=O)[C@@H](NC(=O)[C@@H](CCCC[N+](C)(C)C)NC(C)=O)C(C)(C)SSC(C)(C)[C@@H](C(=O)N[C@@H](Cc2ccc(OCCN)cc2)C(=O)N[C@@H](Cc2ccc3ccccc3c2)C(=O)NC2(C(=O)N[C@@H](CCC(=O)O)C(=O)N[C@@H](CC(N)=O)C(=O)N[C@@H](Cc3cncc(C)c3)C(=O)N(C)CC(N)=O)CCOCC2)NC1=O [compound 474] (Ac-[dLys(Me3)][Pen]NT[Trp(7-Me)]K(Ac)[Pen][AEF][2Nal][Thp]EN[3Pal(5-Me)][Sar]-NH2; disulfide 2-7)  185 A^2
9. CC(=O)NCCCC[C@@H]1NC(=O)[C@H](Cc2c[nH]c3c(-c4cccc(NC(C)=O)c4)cccc23)NC(=O)[C@H]([C@@H](C)O)NC(=O)[C@H](CC(N)=O)NC(=O)[C@@H](NC(=O)[C@@H](CCCC[N+](C)(C)C)NC(C)=O)C(C)(C)SSC(C)(C)[C@@H](C(=O)N[C@@H](Cc2ccc(OCCNC(=N)N)cc2)C(=O)N[C@@H](Cc2ccc3ccccc3c2)C(=O)NC2(C(=O)N[C@@H](CCC(=O)O)C(=O)N[C@@H](CC(N)=O)C(=O)N[C@@H](Cc3cncc(C)c3)C(=O)N(C)CC(N)=O)CCOCC2)NC1=O [compound 480, MeCO-k(Me)3-Pen(3)-N-T-7(3NAcPh)W-K(Ac)-Pen(3)-AEF(G)-2Nal-THP-E-N-5MePyridinAla-Sar-CONH2] (Ac-[dLys(Me3)][Pen]NT[Trp(7-(3-AcNH-Ph))]K(Ac)[Pen]Y(Ethyl(2-guanidino))[2Nal][Thp]EN[3Pal(5-Me)][Sar]-NH2; disulfide 2-7)  198 A^2

Reference: patent publication US20260022143A1, “Cyclic Peptide Inhibitors of IL-23” (JANSSEN PHARMACEUTICA NV, priority 2022, published 2026)
